Laboratory results as given in patent US9328138B2 (priority 2011, dated 2016).
pKi: −log10 of the molar value.

Experiments:
[1] = biological target: HCV NS3 protease genotype 3a (3A-1) (Hepatitis C virus genotype 3a, UniProt Q81258); assay: HCV NS3 protease time-resolved fluorescence (TRF) assay, genotype 3a; format: biochemical; settings: Ki 3a
How it was run: (§1)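 NS3/NS4A protease was pre-incubated 10 min with inhibitor in 50 mM HEPES pH 7.5, 150 mM NaCl, 15% glycerol, 0.15% Triton X-100, 10 mM DTT, 0.1% PEG 8000. TRF peptide substrate (25 nM final) was hydrolysed for 6 h at room temperature. IC50 came from four-parameter fits.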

[2] = biological target: T1, HCV genotype 1b (BK) NS3 modified enzyme with a R155K mutation (Hepatitis C virus genotype 1b, UniProt P26663, R1181K); assay: HCV NS3 protease time-resolved fluorescence (TRF) assay, genotype 1b R155K; format: biochemical; settings: Ki 1b R155K, genotype 1b (BK) NS3 R155K; single value
T1 construct: HCV genotype 1b (BK) NS3 modified enzyme
How it was run: as §1

Row | Compound | pKi [1] | pKi [2]
1 | C=C[C@@H]1C[C@]1(NC(=O)[C@@H]1C[C@@H]2CN1C(=O)[C@H](C(C)(C)C)NC(=O)O[C@@H]1C[C@H]1CCCCCc1c(nc3ccccc3c1OCC1CN(CC)CCO1)O2)C(=O)NS(=O)(=O)C1(C)CC1 (stereo partly drawn) [Example 226, (1aR,5S,8S,10R,22aR)-5-tert-butyl-N-[(1R,2S)-2-ethenyl-1-{[(1-methylcyclopropyl)sulfonyl]carbamoyl}cyclopropyl]-17-[(4-ethylmorpholin-2-yl)methoxy]-3,6-dioxo-1,1a,3,4,5,6,9,10,18,19,20,21,22,22a-tetradecahydro-8H-7,10-methanocyclopropa[18,19][1,10,3,6] dioxadiazacyclononadecino[11,12-b]quinoline-8-carboxamide] | 8.80 | 9.96
2 | C=C[C@@H]1C[C@]1(NC(=O)[C@@H]1C[C@@H]2CN1C(=O)[C@H](C(C)(C)C)NC(=O)O[C@@H]1C[C@H]1CCCCCc1c(nc3ccccc3c1OCCCN(C)Cc1nc3cc(C)ccc3[nH]1)O2)C(=O)NS(=O)(=O)C1(C)CC1 [Example 191, (1aR,5S,8S,10R,22aR)-5-tert-butyl-N-[(1R,2S)-2-ethenyl-1-{[(1-methylcyclopropyl)sulfonyl]carbamoyl}cyclopropyl]-17-(3-{methyl[(5-methyl-1H-benzimidazol-2-yl)methyl]amino}propoxy)-3,6-dioxo-1,1a,3,4,5,6,9,10,18,19, 20,21,22,22a-tetradecahydro-8H-7,10-methano cyclopropa[18,19][1,10,3,6] dioxadiazacyclononadecino[11,12-b] quinoline-8-carboxamide] | 8.82 | 9.80
3 | C=C[C@@H]1C[C@]1(NC(=O)[C@@H]1C[C@@H]2CN1C(=O)[C@H](C(C)(C)C)NC(=O)O[C@@H]1C[C@H]1CCCCCc1c(nc3cc(C(C)C)ccc3c1OCCCN1CCS(=O)(=O)CC1)O2)C(=O)NS(=O)(=O)C1(C)CC1 [Example 162, (1aR,5S,8S,10R,22aR)-5-tert-butyl-17-[3-(1,1-dioxidothiomorpholin-4-yl)propoxy]-N-[(1R,2S)-2-ethenyl-1-{[(1-methylcyclopropyl)sulfonyl]carbamoyl}cyclopropyl]-3,6-dioxo-14-(propan-2-yl)-1,1a,3,4,5,6,9,10,18, 19,20,21,22,22a-tetradecahydro-8H-7,10-methanocyclopropa[18,19] [1,10,3,6]dioxadiazacyclononadecino [11,12-b]quinoline-8-carboxamide] | 8.77 | 9.74
4 | C=C[C@@H]1C[C@]1(NC(=O)[C@@H]1C[C@@H]2CN1C(=O)[C@H](C(C)(C)C)NC(=O)O[C@@H]1C[C@H]1CCCCCc1c(nc3ccccc3c1OCCCN(CC)CCc1nc3ccccc3[nH]1)O2)C(=O)NS(=O)(=O)C1(C)CC1 [Example 192, (1aR,5S,8S,10R,22aR)-17-(3-{[2-(1H-benzimidazol-2-yl)ethyl](ethyl)amino}propoxy)-5-tert-butyl-N-[(1R,2S)-2-ethenyl-1-{[(1-methylcyclopropyl)sulfonyl]carbamoyl}cyclopropyl]-3,6-dioxo-1,1a,3,4,5,6,9,10,18,19,20,21, 22,22a-tetradecahydro-8H-7,10-methanocyclopropa[18,19][1,10,3,6] dioxadiazacyclononadecino[11,12-b] quinoline-8-carboxamide] | 9.15 | 10.00
5 | C=C[C@@H]1C[C@]1(NC(=O)[C@@H]1C[C@@H]2CN1C(=O)[C@H](C1CCCC1)NC(=O)O[C@@H]1C[C@H]1CC/C=C/Cc1c(nc3ccccc3c1OC)O2)C(=O)NS(=O)(=O)C1CC1 [Example 11, (1aR,5S,10R,19E,22aR)-5-cyclo pentyl-N-{(1R,2S)-1-[(cyclopropylsulfonyl)carbamoyl]-2-ethenylcyclopropyl}-17-methoxy-3,6-dioxo-1,1a, 3,4,5,6,9,10,18,21,22,22a-dodeca hydro-8H-7,10-methanocyclopropa[18,19][1,10,3,6] dioxadiazacyclononadecino[11,12-b] quinoline-8-carboxamide] | 7.96 | 9.59
